The source of these data is ChEMBL document CHEMBL1123432, “Methotrexate analogues. 28. Synthesis and biological evaluation of new gamma-monoamides of aminopterin and methotrexate” (J Med Chem, 1986).

SMILES strings stand for the structures. “And” between values parts separate entries of the source, which are not always exact repeats. Equal values may be shown once.

The species named for experiment [1] is Homo sapiens. In words: Compound was tested for its inhibitory concentration against human leukemic lymphoblasts (CEM Cells) and a resistant subline (CEM / MTX); Mean of two assays. In kind it is functional. Conditions: CCRF-CEM.
For experiment [2], the species on record is Homo sapiens. In words: Compound was tested for its inhibitory concentration against human leukemic lymphoblasts (CEM Cells); Mean of two assays. In kind it is functional. Conditions: CCRF-CEM.
For experiment [3], the system named is L1210. Put plainly: Compound was tested for its inhibitory concentration to inhibit the growth of wild type L1210 cells and a subline (L1210 / R81). In kind it is functional, cell-based. Conditions: Mus musculus.
For experiment [4], the system named is L1210. In words: Compound was tested for its inhibitory concentration to inhibit the growth of wild type L1210 cells. In kind it is functional, cell-based, Mus musculus.
In experiment [5] the test system is Mus musculus. In words: Increase in life span of mice with L1210 leukemia cells at a dose of 7.5 mg/kg in exp 2. It is filed as functional.
The subject of experiment [6] is Mus musculus. In words: Increase in life span of mice with L1210 leukemia cells at a dose of 10 mg/kg in exp 2. In kind it is functional.
Experiment [7] deals with Mus musculus. Put plainly: Increase in life span of mice with L1210 leukemia cells at a dose of 15 mg/kg in exp 2. It is filed as functional.
In experiment [8] the test system is Mus musculus. Put plainly: Median Survival days of mice infected with L1210 leukemia cells at dose 7.5 mg/kg relative to that of 10 days for control in expt 2. In kind it is functional.
The test system of experiment [9] is Mus musculus. Put plainly: Median Survival days of mice infected with L1210 leukemia cells at dose 10 mg/kg relative to that of 10 days for control in expt 2. It is filed as functional.
For experiment [10], the system named is Mus musculus. In words: Median Survival days of mice infected with L1210 leukemia cells at dose 10 mg/kg relative to that of 9 days for control in expt 1. In kind it is functional.
For experiment [11], the system named is Mus musculus. Put plainly: Median Survival days of mice infected with L1210 leukemia cells at dose 15 mg/kg relative to that of 10 days for control in expt 2. In kind it is functional.
In experiment [12] the test system is Mus musculus. Put plainly: Median Survival days of mice infected with L1210 leukemia cells at dose 20 mg/kg relative to that of 9 days for control in expt 1. In kind it is functional.
For experiment [13], the species on record is Mus musculus. In words: Compound was tested against weight change in mice with L1210 leukemia cells on 7 th Day at Dose 10 mg / kg. In kind it is functional. To be noted: at 10 mg/kg.
Experiment [14] is filed under the species Mus musculus. Put plainly: Compound was tested against weight change in mice with L1210 leukemia cells on 7 th Day at Dose 15 mg / kg. In kind it is functional. To be noted: at 15 mg/kg.
Experiment [15] has as its target T1, Dihydrofolate reductase (Mus musculus) (UniProt P00375).
T1 sequence (whole entry): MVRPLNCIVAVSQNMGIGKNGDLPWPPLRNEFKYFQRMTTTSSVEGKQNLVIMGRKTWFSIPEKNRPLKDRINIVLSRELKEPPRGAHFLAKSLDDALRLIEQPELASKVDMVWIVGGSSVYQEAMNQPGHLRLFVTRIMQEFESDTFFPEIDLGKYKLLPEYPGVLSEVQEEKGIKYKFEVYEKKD
To be noted: L1210.
Description: Compound was tested for inhibition of the enzyme DiHydroFolate Reductase (DHFR) from murine L1210 leukemia cells

The target of experiment [16] is T2, Dihydrofolate reductase (Mus musculus, UniProt P00375).
T2 sequence (P00375 whole entry): T1 sequence (whole entry)
In words: biochemical.
Description: Compound was tested for its inhibitory concentration to inhibit the enzyme Dihydro Folate Reductase (DHFR) from murine L1210 leukemia cells.

The species entered for experiment [17] is Mus musculus. Put plainly: Compound was tested against weight change in mice with L1210 leukemia cells on 10 th Day at Dose 20 mg / kg. Conditions: at 20 mg/kg.
The species entered for experiment [18] is Mus musculus. Put plainly: Compound was tested against weight change in mice with L1210 leukemia cells on 10 th Day at Dose 7.5 mg / kg. Conditions: at 7.5 mg/kg.
Experiment [19] is filed under the species Homo sapiens. In words: Compound was tested for its inhibitory concentration against human leukemic lymphoblasts (CEM Cells) and a resistant subline (CEM / MTX). Conditions: CCRF-CEM. It is filed as functional.
Experiment [20] relates to L1210. In words: Compound was tested for its inhibitory concentration to inhibit the growth of wild type L1210 cells and a subline (L1210 / R81); Mean of two assays. In kind it is functional, cell-based. Conditions: Mus musculus.
The subject of experiment [21] is L1210. Put plainly: Compound was tested for its inhibitory concentration to inhibit the growth of wild type L1210 cells. In kind it is functional, cell-based. To be noted: Mus musculus.
The test system of experiment [22] is Mus musculus. In words: Increase in life span of mice with L1210 leukemia cells at a dose of 80 mg/kg. In kind it is functional.
For experiment [23], the system named is Mus musculus. Put plainly: Increase in life span of mice with L1210 leukemia cells at a dose of 20 mg/kg. It is filed as functional.
In experiment [24] the test system is Mus musculus. Put plainly: Increase in life span of mice with L1210 leukemia cells at a dose of 40 mg/kg. In kind it is functional.
Experiment [25] has as its system Mus musculus. Put plainly: Median Survival days of mice infected with L1210 leukemia cells at dose 20 mg/kg relative to that of 9 days for control. In kind it is functional.
Experiment [26] has as its system Mus musculus. In words: Median Survival days of mice infected with L1210 leukemia cells at dose 40 mg/kg relative to that of 9 days for control. It is filed as functional.
The test system of experiment [27] is Mus musculus. Put plainly: Median Survival days of mice infected with L1210 leukemia cells at dose 80 mg/kg relative to that of 9 days for control. In kind it is functional.
The species entered for experiment [28] is Mus musculus. In words: Compound was tested against weight change in mice with L1210 leukemia cells on 10 th Day at Dose 80 mg / kg. To be noted: at 80 mg/kg.
The species named for experiment [29] is Mus musculus. Put plainly: Compound was tested against weight change in mice with L1210 leukemia cells on 10 th Day at Dose 40 mg / kg. To be noted: at 40 mg/kg.
For experiment [30], the species on record is Homo sapiens. Put plainly: Compound was tested for its inhibitory concentration against human leukemic lymphoblasts (CEM Cells). It is filed as functional. Conditions: CCRF-CEM.
Experiment [31] relates to Mus musculus. In words: Increase in life span of mice with L1210 leukemia cells at a dose of 0.5 mg/kg. In kind it is functional.
Experiment [32] has as its system Mus musculus. In words: Increase in life span of mice with L1210 leukemia cells at a dose of 1 mg/kg. In kind it is functional.
Experiment [33] relates to Mus musculus. In words: Median Survival days of mice infected with L1210 leukemia cells at dose 0.5 mg/kg relative to that of 9 days for control. In kind it is functional.
Experiment [34] concerns Mus musculus. In words: Median Survival days of mice infected with L1210 leukemia cells at dose 1 mg/kg relative to that of 9 days for control. In kind it is functional.
For experiment [35], the species on record is Mus musculus. In words: Compound was tested against weight change in mice with L1210 leukemia cells on 7 th Day at Dose 0.5 mg / kg. It is filed as functional. To be noted: at 0.5 mg/kg.
For experiment [36], the species on record is Mus musculus. In words: Compound was tested against weight change in mice with L1210 leukemia cells on 7 th Day at Dose 1 mg / kg. It is filed as functional. To be noted: at 1 mg/kg.

A word on the IC50: it is the midpoint of a concentration-inhibition curve. As usually defined, the ILS is the gain in survival time of treated over control animals, in per cent. As to `Nc1nc(N)c2nc(CNc3ccc(C(=O)NC(CCC(=O)Nc4ccccc4)C(=O)O)cc3)cnc2n1` (stereo unspecified), the IC50 was 4.7 µM in [1]; 0.18 µM in experiment [2]; 10 µM in experiment [3]; 0.0035 µM in experiment [4] (Mus musculus, L1210); 0.0036 µM in [4] (l1210); 0.06 µM in experiment [16]. Moreover, the ILS at 7.5 mg/kg in experiment [5] was found to be 30%. The ILS at 10 mg/kg in experiment [6] worked out at 50%. Also, the ILS at 15 mg/kg in experiment [7] was 30%. Also, the Survival in experiment [8] was found to be 13 days; in [9], 15 days; in [10] it was 12 days; in [11], 13 days; in [12], 12 days. Besides, the Weight change in experiment [13] was 17% and 6%; in experiment [14], 2%; in [17], 0%; in experiment [18], 4%. This molecule had an IC50/[E] in experiment [15] of 1.5.

With `CC(C)(C)NC(=O)CCC(NC(=O)c1ccc(NCc2cnc3nc(N)nc(N)c3n2)cc1)C(=O)O` (stereo unspecified), the IC50 in [19] amounted to 36 µM; in experiment [2], 5.8 µM; in experiment [20], 22 µM; in [4] (Mus musculus, L1210) it was 0.12 µM; in experiment [21] it was 0.032 µM; in experiment [16] it was 0.044 µM. Moreover, the ILS at 80 mg/kg in experiment [22] came out at 22%. For the same molecule, in experiment [23], the ILS at 20 mg/kg was 0%. The ILS at 40 mg/kg in [24] worked out at 11%. Further, the Survival in experiment [25] worked out at 9 days; in experiment [26], 10 days; in experiment [27] it was 11 days. This molecule came in with an IC50/[E] in experiment [15] of 1.1. Moreover, the Weight change was 9% in [28], 17% in experiment [17] and 7% in experiment [29].

On to `Nc1nc(N)c2nc(CNc3ccc(C(=O)N[C@@H](CCC(=O)O)C(=O)O)cc3)cnc2n1` [AMINOPTERIN], for which the IC50 in [30] is 0.001 µM; in experiment [19], 0.32 µM; in experiment [4] (Mus musculus, L1210), 0.003 µM; in experiment [16], 0.02 µM. Moreover, the ILS at 0.5 mg/kg in experiment [31] was 89%. The ILS at 1 mg/kg in experiment [32] is 122%. The figures for the Survival in experiment [33] and in [34] were 17 days and 20 days, respectively. In addition, the Weight change is given as -4% in [35] and -5% in experiment [36]. Further, the IC50/[E] in experiment [15] is 0.5.
